Assay results from US20110152090A1, “HERBICIDAL COMPOSITIONS COMPRISING FLUFENACET” (Bayer CropScience AG, priority 2009, published 2011).

What was measured:
Format in all cases: in vivo
[1] = system: POAAN (Poa annua); test: Greenhouse trial: PE soil application vs incorporation into the soil (test methods 1, 3); conditions: g of AS/ha: (A) 90, (B) 1200, (C) 90, (D) 300
Description: (§1) In the standard design of the test, seeds of various broad-leaved weed and weed grass biotypes (origins) were sown in a 8-13 cm diameter pot filled with natural soil of a standard field soil (loamy silt; non-sterile) and covered with a covering soil layer of about 1 cm. The pots were then cultivated in a greenhouse (12-16 h of light, temperature day 20-22° C., night 15-18° C.) until the time of application. The pots were treated on a laboratory track sprayer with spray liquors comprising the compositions according to the invention, mixtures of the prior art or components used individually. Application of the active compounds or active compound combinations formulated as WG, WP, EC or otherwise was carried out at the appropriate growth stages of the plants. The application rate for the spray application was 100-600 l of water/ha. After the treatment, the plants were returned to the greenhouses.
(§2) About 3 weeks after the application, the soil action or/and foliar action was assessed visually according to a scale of 0-100% in comparison to an untreated comparative group: 0%=no noticeable effect compared to the untreated comparative group; 100%=full effect compared to the untreated comparative group.
(§3) (notes: the term “seeds” also includes vegetative propagation forms such as, for example, rhizome pieces; abbreviations used: h light=hours of illumination, g of AS/ha=gram of active substance per hectare, l/ha=liter per hectare, S=sensitive, R=resistant) • 1. Pre-emergence action against weeds: seeds of various broad-leaved weed and weed grass biotypes (origins) were sown in a 8-13 cm diameter pot filled with natural soil of a standard field soil (loamy silt; non-sterile) and covered with a covering soil layer of about 1 cm. The pots were then cultivated in a greenhouse (12-16 h of light, temperature day 20-22° C., night 15-18° C.) until the time of application. The pots were treated at the BBCH stage 00-10 of the seeds/plants on a laboratory track sprayer with spray liquors comprising the compositions according to the invention, mixtures or components used individually, as WG, WP, EC or other formulations. The application rate for the spray application was 100-600 l of water/ha. After the treatment, the plants were returned to the greenhouses and, when required, treated with fertilizer and watered. • 2. Post-emergence action against weeds: seeds of various broad-leaved weed and weed grass biotypes (origins) were sown in a 8-13 cm diameter pot filled with natural soil of a standard field soil (loamy silt; non-sterile) and covered with a covering soil layer of about 1 cm. The pots were then cultivated in a greenhouse (12-16 h of light, temperature day 20-22° C., night 15-18° C.) until the time of application. The pots were treated at various BBCH stages between 11-25 of the seeds/plants, i.e. generally between two to three weeks after the start of the cultivation, on a laboratory track sprayer with spray liquors comprising the compositions according to the invention, mixtures or components used individually, as WG, WP, EC or other formulations. The application rate for the spray application was 100-600 l of water/ha. After the treatment, the plants were returned to the greenhouses and, when required, treated with fertilizer and watered. • 3. Pre-emergence action against weeds with and without incorporation of active compound: seeds of various broad-leaved weed and weed grass biotypes (origins) were sown in a 8-13 cm diameter pot filled with natural soil of a standard field soil (loamy silt; non-sterile). […]

[2] = system: STEME (Stellaria media); test: as above; conditions: g of AS/ha: (A) 90, (B) 1200, (C) 90, (D) 300
Description: as §1, §2, §3

[3] = system: TRZAS (Triticum aestivum, summer wheat); test: Greenhouse trial: crop selectivity, PE soil application vs incorporation (test methods 3, 4); conditions: g of AS/ha: (A) 90, (B) 1200, (C) 90, (D) 300
Description: as §1
About 3 weeks after the application, the soil action or/and foliar action was assessed visually according to a scale of 0-100% in comparison to an untreated comparative group: 0%=no noticeable effect compared to the untreated comparative group; 100%=full effect compared to the untreated comparative group. […]

[4] = system: APESV (Apera Spica-venti); test: Greenhouse trial: PO application (test method 2); conditions: g of AS/ha: (A) 120, (B) 1600, (C) 120
Description: as §1, §2, §3

[5] = system: POAAN (Poa annua); test: Greenhouse trial: PO application (test method 2); conditions: g of AS/ha: (A) 120, (B) 1600, (C) 120
Description: as §1, §2, §3

[6] = system: STEME (Stellaria media); test: Greenhouse trial: PO application (test method 2); conditions: g of AS/ha: (A) 120, (B) 1600, (C) 120
Description: as §1, §2, §3

[7] = system: HORVS (Hordeum vulgare, summer barley); test: Greenhouse trial: selective PO action (test method 5); conditions: PO application; g of AS/ha: (A) 120, (B) 1600, (C) 120
Description: as §1, §2
(§4) (notes: the term “seeds” also includes vegetative propagation forms such as, for example, rhizome pieces; abbreviations used: h light=hours of illumination, g of AS/ha=gram of active substance per hectare, l/ha=liter per hectare, S=sensitive, R=resistant) • 1. Pre-emergence action against weeds: seeds of various broad-leaved weed and weed grass biotypes (origins) were sown in a 8-13 cm diameter pot filled with natural soil of a standard field soil (loamy silt; non-sterile) and covered with a covering soil layer of about 1 cm. The pots were then cultivated in a greenhouse (12-16 h of light, temperature day 20-22° C., night 15-18° C.) until the time of application. […]

[8] = system: AVEFA (Avena fatua); test: Greenhouse trial: pre-sowing application vs PE application (test method 6)
Description: as §1, §2, §3

[9] = system: LOLPE (Lolium perenne); test: as above
Description: as §1, §2, §3

[10] = system: HORVS (Hordeum vulgare, summer barley); test: Greenhouse trial: pre-sowing application vs PE application (test method 6), crop, PE part; conditions: PE application; g of AS/ha: (A) 90, (B) 1200, (C) 90
Description: as §1, §2, §4

[11] = system: TRZAS (Triticum aestivum, summer wheat); test: Greenhouse trial: pre-sowing application vs PE application (test method 6), crop, pre-sowing part; conditions: application 7 days prior to sowing; g AS/ha: (A) 90, (B) 1200, (C) 90
Description: as §1, §2, §4

[12] = system: AVEFA (Avena fatua); test: Greenhouse trial: different irrigation systems (test method 7); conditions: g of AS/ha: (A) 120, (B) 1200, (C) 90
Description: as §1, §2, §3

[13] = system: LOLPE (Lolium perenne); test: as above; conditions: g of AS/ha: (A) 120, (B) 1200, (C) 90
Description: as §1, §2, §3

[14] = system: MATCH (Matricaria chamomilla); test: as above; conditions: g of AS/ha: (A) 120, (B) 1200, (C) 90
Description: as §1, §2, §3

[15] = system: LOLPE (Lolium perenne); test: Greenhouse trial: different soil types (test method 8); conditions: g of AS/ha: (A) 120, (B) 1200, (C) 90
Description: as §1, §2, §3

[16] = system: MATCH (Matricaria chamomilla); test: as above; conditions: g of AS/ha: (A) 120, (B) 1200, (C) 90
Description: as §1, §2, §3

[17] = system: HORVS (Hordeum vulgare, summer barley); test: Greenhouse trial: different soil types (test method 8), crop; conditions: g AS/ha: (A) 120, (B) 1200, (C) 90
Description: as §1, §2, §3

[18] = system: LOLSS (Lolium species), sensitive and resistant; test: Greenhouse trial: resistant biotypes, PE application (test method 9); conditions: g of AS/ha: (A) 90, (B) 1200, (C) 90, iodosulfuron 10
Description: as §1, §2, §3

[19] = system: MATCH (Matricaria chamomilla), sensitive and resistant; test: as above; conditions: g of AS/ha: (A) 90, (B) 1200, (C) 90, iodosulfuron 10
Description: as §1, §2, §3

[20] = system: STEME (Stellaria media), sensitive and resistant; test: as above; conditions: g of AS/ha: (A) 90, (B) 1200, (C) 90, iodosulfuron 10
Description: as §1, §2, §3

[21] = system: APESV (Apera Spica-venti); test: Greenhouse trial: different sowing depths, PE application (test method 10); conditions: g of AS/ha: (A) 90, (B) 1200, (C) 90
Description: as §1, §2, §3

[22] = system: MATCH (Matricaria chamomilla); test: as above; conditions: g of AS/ha: (A) 90, (B) 1200, (C) 90
Description: as §1, §2, §3

[23] = PE application, g of AS/ha: (A) 90, (B) 1200, (C) 90
[24] = application 7 days prior to sowing, g AS/ha: (A) 90, (B) 1200, (C) 90

For `O=C(Nc1ccc(F)cc1F)c1cccnc1Oc1cccc(C(F)(F)F)c1` [(C) diflufenican, N-(2,4-difluorophenyl)-2-[3-(trifluoromethyl)phenoxy]-3-pyridinecarboxamide], the “activity POAAN (visual scale 0-100%)” value ([1]; PE application) was 70%, the “activity POAAN (visual scale 0-100%)” value ([1]; incorporation into the soil) was 92% and the “activity STEME (visual scale 0-100%)” value ([2]; PE application) was 50%. For the same compound, the “activity STEME (visual scale 0-100%)” value ([2]; incorporation into the soil) was 95%, the “activity on crop TRZAS (visual scale 0-100%)” value ([3]; PE application) was 0% and the “activity on crop TRZAS (visual scale 0-100%)” value ([3]; incorporation into the soil) was 30%. The “activity APESV (visual scale 0-100%)” value [4] was 5%, the “activity POAAN (visual scale 0-100%)” value [5] was 5% and the “activity STEME (visual scale 0-100%)” value [6] was 30%. For the same compound, the “activity on crop HORVS (visual scale 0-100%)” value [7] was 5%, the “activity AVEFA (visual scale 0-100%)” value [8, 23] was 30% and the “activity AVEFA (visual scale 0-100%)” value [8, 24] was 10%. For the same compound, the “activity LOLPE (visual scale 0-100%)” value [9, 23] was 20%, the “activity LOLPE (visual scale 0-100%)” value [9, 24] was 10% and the “activity on crop HORVS (visual scale 0-100%)” value [10] was 5%. The “activity on crop TRZAS (visual scale 0-100%)” value [11] was 5%, the “activity AVEFA (visual scale 0-100%)” value ([12]; irrigation from above) was 50% and the “activity AVEFA (visual scale 0-100%)” value ([12]; irrigation from below) was 30%. For the same compound, the “activity LOLPE (visual scale 0-100%)” value ([13]; irrigation from above) was 20%, the “activity LOLPE (visual scale 0-100%)” value ([13]; irrigation from below) was 20% and the “activity MATCH (visual scale 0-100%)” value ([14]; irrigation from above) was 0%. For the same compound, the “activity MATCH (visual scale 0-100%)” value ([14]; irrigation from below) was 50%, the “activity LOLPE IU soil (visual scale 0-100%)” value ([15]; IU soil) was 45% and the “activity LOLPE IU/EC73 soil (visual scale 0-100%)” value ([15]; IU/EC73 soil) was 0%. The “activity MATCH IU soil (visual scale 0-100%)” value ([16]; IU soil) was 40%, the “Difference of the soil types, MATCH” value ([16]; IU/EC73 soil vs IU soil) was −5% and the “activity MATCH IU/EC73 soil (visual scale 0-100%)” value ([16]; IU/EC73 soil) was 35%. For the same compound, the “activity on crop HORVS IU soil (visual scale 0-100%)” value ([17]; IU soil) was 0%, the “activity on crop HORVS IU/EC73 soil (visual scale 0-100%)” value ([17]; IU/EC73 soil) was 0% and the “activity LOLSS resistant (visual scale 0-100%)” value ([18]; resistant biotype) was 20%. For the same compound, the “activity LOLSS sensitive (visual scale 0-100%)” value ([18]; sensitive biotype) was 80%, the “activity MATCH resistant (visual scale 0-100%)” value ([19]; resistant biotype) was 30% and the “activity MATCH sensitive (visual scale 0-100%)” value ([19]; sensitive biotype) was 30%. For the same compound, the “activity STEME resistant (visual scale 0-100%)” value ([20]; resistant biotype) was 50%, the “activity STEME sensitive (visual scale 0-100%)” value ([20]; sensitive biotype) was 70% and the “activity APESV 5 mm (visual scale 0-100%)” value ([21]; sowing depth 5 mm) was 5%. The “activity APESV 20 mm (visual scale 0-100%)” value ([21]; sowing depth 20 mm) was 5%, the “activity MATCH 5 mm (visual scale 0-100%)” value ([22]; sowing depth 5 mm) was 60% and the “activity MATCH 20 mm (visual scale 0-100%)” value ([22]; sowing depth 20 mm) was 70%.
